Earlier results in patent US10813882B1, “In situ gelling formulation for reduced initial drug burst” (King Abdulaziz University, priority 2019, dated 2020).

Tests used:
[1] = in vivo
[2] = tested on: plasma protein

CC(C)c1nc(N(C)S(C)(=O)=O)nc(-c2ccc(F)cc2)c1/C=C/[C@@H](O)C[C@@H](O)CC(=O)O [RSV, Rosuvastatin]
bioavailability [1]: 20% | effect of food on the amount absorbed [1]: does not affect | time to maximum plasma level [1]: 3 to 5 h | solubility in organic solvent such as DMSO and DMF (DMSO, dimethyl formamide): soluble | solubility in ethanol (ethanol): marginally soluble | bound to plasma protein [2]: 88%
